From patent publication US10925874B2, “Substituted pyrazolopyrimidines as glucocerebrosidase activators” (The United States of America, as Represented by the …, priority 2010, dated 2021)

molecular target: T1, N370S glucocerebrosidase from human spleen homogenate (Homo sapiens, UniProt P04062, N409S); assay: qHTS fluorogenic enzyme assay for activators of N370S glucocerebrosidase (4-methylumbelliferyl-beta-D-glucopyranoside substrate); assay type: biochemical; details: pH 5.0, 37° C. 40 min
T1 construct: N370S glucocerebrosidase from human spleen homogenate as the enzyme preparation; from tissue; host or cells: human spleen homogenate
T1 sequence (P04062 40-536 N409S): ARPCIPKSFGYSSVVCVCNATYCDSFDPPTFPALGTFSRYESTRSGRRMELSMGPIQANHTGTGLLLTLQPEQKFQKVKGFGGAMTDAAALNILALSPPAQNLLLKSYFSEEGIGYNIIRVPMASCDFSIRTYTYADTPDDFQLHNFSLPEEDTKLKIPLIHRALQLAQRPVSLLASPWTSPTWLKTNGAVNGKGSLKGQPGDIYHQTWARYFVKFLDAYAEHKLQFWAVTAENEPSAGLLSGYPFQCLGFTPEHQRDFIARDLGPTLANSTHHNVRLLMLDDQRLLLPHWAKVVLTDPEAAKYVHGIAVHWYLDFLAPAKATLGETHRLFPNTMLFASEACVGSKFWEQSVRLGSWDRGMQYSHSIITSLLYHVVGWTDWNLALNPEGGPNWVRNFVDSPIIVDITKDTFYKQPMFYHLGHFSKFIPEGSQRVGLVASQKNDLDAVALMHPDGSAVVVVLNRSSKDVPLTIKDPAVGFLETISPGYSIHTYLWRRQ
Description: qHTS Assay for Inhibitors and Activators of N370S glucocerebrosidase as a Potential Chaperone Treatment of Gaucher Disease: Primary Screen Confirmation
This is a fluorogenic enzyme assay with 4-methylumbelliferyl-beta-D-glucopyranoside as the substrate and N370S glucocerebrosidase from human spleen homogenate as the enzyme preparation. Upon the hydrolysis of this fluorogenic substrate, the resulting product, […] which can be detected by a standard fluorescence plate reader. Data were normalized to the controls for basal activity (without enzyme) and 100% activity (with enzyme). The AC50 values were determined from concentration-response data modeled with the standard Hill equation.
Human spleen homogenate is prepared as follows by homogenizing spleen with assay buffer containing 50 mM citric acid (titrated with potassium phosphate to pH 5.0), 100 mM potassium chloride, 10 mM sodium chloride, 1 mM magnesium chloride, 0.01% Tween-20. The protein concentration of the human spleen homogenate is approximated 1.35 ug/ul.
The assay is performed in 1536 well plates according to the following protocol. (1) 2 ul spleen homogenate ([…] final) is added to each well. (2) 23 nL test compound in DMSO solution is added to each well. The final concentration of compound in the test well is 0.5 nM to 58 uM. (3) 2 ul of substrate (1 mM final) are added to each well. (4) Incubate assay plates at 37° C. for 40 min. (5) Add 2 ul stop solution (1M NaOH and 1M Glycine mixture, pH 10) to each well. (6) Detect the assay plate in a ViewLux plate reader (PerkinElmer) using 365 nm excitation with emission at 440 nm.

SMILES	AC50 [µM]
O=C(Nc1cnn(Cc2ccc(F)cc2)c1)c1cnn2c(C(F)F)cc(-c3ccccc3)nc12 [MLS000662187-01, 7-(difluoromethyl)-N-(1-(4-fluorobenzyl)-1H-pyrazol-4-yl)-5-phenylpyrazolo[1,5-a]pyrimidine-3-carboxamide]	3.26
CCC(C)c1ccc(NC(=O)c2cnn3c(C(F)F)cc(C)nc23)cc1 (stereo not drawn) [MLS000662237-01, N-(4-sec-butylphenyl)-7-(difluoromethyl)-5-methylpyrazolo[1,5-a]pyrimidine-3-carboxamide]	5.01
CCc1ccc(NC(=O)c2cnn3c(C(F)F)cc(C)nc23)cc1 [MLS000708974-01, 7-(difluoromethyl)-N-(4-ethylphenyl)-5-methylpyrazolo[1,5-a]pyrimidine-3-carboxamide]	2.24
Cc1cc(C)n2ncc(C(=O)Nc3ccc(Cl)c(Cl)c3)c2n1 [MLS000765493-01, N-(3,4-dichlorophenyl)-5,7-dimethylpyrazolo[1,5-a]pyrimidine-3-carboxamide]	7.08
Cc1cc(C)n2ncc(C(=O)Nc3ccc4c(c3)OCO4)c2n1 [NCGC00054856-02, N-(benzo[d][1,3]dioxol-5-yl)-5,7-dimethylpyrazolo[1,5-a]pyrimidine-3-carboxamide]	6.51
COC(=O)c1ccccc1NC(=O)c1cnn2c1NC(=C1CC1)C=C2C(F)F [NCGC00182132-01, methyl 2-(5-cyclopropylidene-7-(difluoromethyl)-4,5-dihydropyrazolo[1,5-a]pyrimidine-3-carboxamido)benzoate]	15.8
Cc1cccc(NC(=O)c2cnn3c2NC(=C2CC2)C=C3C(F)F)n1 [NCGC00182139-01, 5-cyclopropylidene-7-(difluoromethyl)-N-(6-methylpyridin-2-yl)-4,5-dihydropyrazolo[1,5-a]pyrimidine-3-carboxamide]	12.6
C=C1C=C(C(F)F)n2ncc(C(=O)N3CCN(c4ccccn4)CC3)c2N1 [NCGC00182144-01, (7-(difluoromethyl)-5-methylene-4,5-dihydropyrazolo[1,5-a]pyrimidin-3-yl)(4-(pyridin-2-yl)piperazin-1-yl)methanone]	35.5
C=C1C=C(C(F)F)n2ncc(C(=O)NC(C)CC)c2N1 (stereo not drawn) [NCGC00182145-01, N-sec-butyl-7-(difluoromethyl)-5-methylene-4,5-dihydropyrazolo[1,5-a]pyrimidine-3-carboxamide]	31.6
C=C1C=C(C(F)F)n2ncc(C(=O)NCCc3ccccc3Cl)c2N1 [NCGC00182151-01, N-(2-chlorophenethyl)-7-(difluoromethyl)-5-methylene-4,5-dihydropyrazolo[1,5-a]pyrimidine-3-carboxamide]	31.6
C=C1C=C(C(F)F)n2ncc(C(=O)N3CCN(c4ccccc4)CC3)c2N1 [NCGC00182152-01, (7-(difluoromethyl)-5-methylene-4,5-dihydropyrazolo[1,5-a]pyrimidin-3-yl)(4-phenylpiperazin-1-yl)methanone]	31.6
C=C1C=C(C(F)F)n2ncc(C(=O)NCc3ccccc3C(F)(F)F)c2N1 [NCGC00182161-01, 7-(difluoromethyl)-5-methylene-N-(2-(trifluoromethyl)benzyl)-4,5-dihdyropyrazolo[1,5-a]pyrimidine-3-carboxamide]	15.8
O=C(Nc1ccc2c(c1)OCCO2)c1cnn2c1NC(=C1CC1)C=C2C(F)F [NCGC00182167-01, 5-cyclopropylidene-7-(difluoromethyl)-N-(2,3-dihydrobenzo[b][1,4]dioxin-6-yl)-4,5-dihydropyrazolo[1,5-a]pyrimidine-3-carboxmaide]	8.91
O=C(NC1CCCC1)c1cnn2c1NC(=C1CC1)C=C2C(F)F [NCGC00182170-01, N-cyclopentyl-5-cyclopropylidene-7-(difluoromethyl)-4,5-dihydropyrazolo[1,5-a]pyrimidine-3-carboxamide]	12.6
O=C(Nc1ccc2c(c1)CCC2)c1cnn2c1NC(=C1CC1)C=C2C(F)F [NCGC00182174-01, 5-cyclopropylidene-7-(difluoromethyl)-N-(2,3-dihydro-1H-inden-5-yl)-4,5-dihydropyrazolo[1,5-a]pyrimidine-3-carboxamide]	3.98
O=C(NC1CCCCC1)c1cnn2c1NC(=C1CC1)C=C2C(F)F [NCGC00182175-01, N-cyclohexyl-5-cyclopropylidene-7-(difluoromethyl)-4,5-dihydropyrazolo[1,5-a]pyrimidine-3-carboxamide]	12.6
O=C(NC1CCCc2ccccc21)c1cnn2c1NC(=C1CC1)C=C2C(F)F (stereo not drawn) [NCGC00182176-01, 5-cyclopropylidene-7-(difluoromethyl)-N-(1,2,3,4-tetrahydronaphthalen-1-yl)-4,5-dihydropyrazolo[1,5-a]pyrimidine-3-carboxamide]	14.3

Now from value to compound:

AC50 [µM]	SMILES
3.16	Cc1ccc(NC(=O)c2cnn3c2NC(=C2CC2)C=C3C(F)F)cc1C [NCGC00182133-01, 5-cyclopropylidene-7-(difluoromethyl)-N-(3,4-dimethylphenyl)-4,5-dihydropyrazolo[1,5-a]pyrimidine-3-carboxamide]
2.51	C=C1C=C(C(F)F)n2ncc(C(=O)Nc3ccc(C(C)CC)cc3)c2N1 (stereo not drawn) [NCGC00182141-01, N-(4-sec-butylphenyl)-7-(difluoromethyl)-5-methylene-4,5-dihydropyrazolo[1,5-a]pyrimidine-3-carboxamide]
10	C=C1C=C(C(F)F)n2ncc(C(=O)Nc3cccc(CC)c3)c2N1 [NCGC00182142-01, 7-(difluoromethyl)-N-(3-ethylphenyl)-5-methylene-4,5-dihydropyrazolo[1,5-a]pyrimidine-3-carboxamide]
10	C=C1C=C(C(F)F)n2ncc(C(=O)NCc3ccc(Cl)cc3Cl)c2N1 [NCGC00182146-01, N-(2,4-dichlorobenzyl)-7-(difluoromethyl)-5-methylene-4,5-dihydropyrazolo[1,5-a]pyrimidine-3-carboxamide]
25.1	C=C1C=C(C(F)F)n2ncc(C(=O)NCCc3ccccc3OC)c2N1 [NCGC00182147-01, 7-(difluoromethyl)-N-(2-methoxyphenethyl)-5-methylene-4,5-dihydropyrazolo[1,5-a]pyrimidine-3-carboxamide]
14.1	C=C1C=C(C(F)F)n2ncc(C(=O)NCc3ccccc3Cl)c2N1 [NCGC00182148-01, N-(2-chlorobenzyl)-7-(difluoromethyl)-5-methylene-4,5-dihydropyrazolo[1,5-a]pyrimidine-3-carboxamide]
11.2	C=C1C=C(C(F)F)n2ncc(C(=O)Nc3ccc(N(CC)CC)cc3)c2N1 [NCGC00182154-01, N-(4-(diethylamino)phenyl)-7-(difluoromethyl)-5-methylene-4,5-dihydropyrazolo[1,5-a]pyrimidine-3-carboxamide]
15.8	C=C1C=C(C(F)F)n2ncc(C(=O)NCCc3ccc(Cl)cc3)c2N1 [NCGC00182159-01, N-(4-chlorophenethyl)-7-(difluoromethyl)-5-methylene-4,5-dihydropyrazolo[1,5-a]pyrimidine-3-carboxamide]
2.51	C=C1C=C(C(F)F)n2ncc(C(=O)Nc3ccccc3OCC)c2N1 [NCGC00182160-01, 7-(difluoromethyl)-N-(2-ethoxyphenyl)-5-methylene-4,5-dihydropyrazolo[1,5-a]pyrimidine-3-carboxamide]
14.1	C=C1C=C(C(F)F)n2ncc(C(=O)NCc3ccccc3OC)c2N1 [NCGC00182162-01, 7-(difluoromethyl)-N-(2-methoxybenzyl)-5-methylene-4,5-dihydropyrazolo[1,5-a]pyrimidine-3-carboxamide]
10	C=C1C=C(C)n2ncc(C(=O)Nc3ccccc3C(=O)OC)c2N1 [NCGC00182165-01, methyl 2-(7-methyl-5-methylene-4,5-dihydropyrazolo[1,5-a]pyrimidine-3-carboxamido)benzoate]
3.98	C=C1C=C(C)n2ncc(C(=O)Nc3ccc(F)cc3F)c2N1 [NCGC00182166-01, N-(2,4-difluorophenyl)-7-methyl-5-methylene-4,5-dihydropyrazolo[1,5-a]pyrimidine-3-carboxamide]
3.16	O=C(Nc1cc(F)ccc1F)c1cnn2c1NC(=C1CC1)C=C2C(F)F [NCGC00182172-01, 5-cyclopropylidene-7-(difluoromethyl)-N-(2,5-difluorophenyl)-4,5-dihydropyrazolo[1,5-a]pyrimidine-3-carboxamide]
